# Read-outs that look alike come from different tables or passages of the source.
# Tests used:
# [1] = system: TAR (Flag-Tat-Rev fusion protein); test: Flag-Tat-Rev fusion protein transactivation via TAR; format: cell-based, HIV-1; conditions: TAR reporter
# OM10.1 cells = test: Cell-associated HIV Gag mRNA expression / HIV transcription in latently infected OM10.1 cells; format: cell-based; conditions: 12-day treatment with ARVs
# Description: (§1) Next, the activity of these leads against HIV infection was evaluated using the reporter cell line HeLa-CD4-LTR-LacZ, which stably expresses the β-galactosidase (β-Gal) gene under the control of the HIV 5′ LTR. The HIV NL4.3 strain was used for these studies and β-Gal activity was measured 72 hrs post infection (FIG. 3A). Cytotoxicity assays using Cell-Titer-Glo were performed in parallel to assess cell viability (FIG. 3A). […] Their anti-HIV activity was further assessed in acute replication of Jurkat T cells with the NL4.3 strain (FIG. 3A). […] These OM10.1 cells contain a single integrated wild-type provirus, while ACH-2 cells contain a single integrated provirus with a TAR mutation C37T, defective Tat-TAR feedback loop (FIG. 3B).
# [2] = system: TAR-SIIB promoter (Flag-Tat-Rev fusion protein); test: Flag-Tat-Rev fusion protein transactivation of TAR-SIIB promoter; format: cell-based, HIV-1; conditions: SIIB reporter HEK293T
# Description: FIG. 4. […] Shown is n=1. […] Shown is n=1. ARVs: antiretrovirals: 100 nM Efavirenz, 200 nM Lamivudine and 200 nM Raltegravir. C. […] SIIB: a reporter HEK293T stable cell line where the essential apical region of TAR was replaced by the 29-nucleotide stem-loop IIB (SIIB) subdomain of the HIV-1 RRE. A Tat-Rev fusion protein activates transcription of luciferase when Rev binds SIIB, bringing Tat and P-TEFb to RNAPII at the HIV promoter. Shown is mean±SEM of n=4.
# recombinant Tat = target: T1, recombinant Tat (Human immunodeficiency virus type 1 (HXB3 ISOLATE), UniProt P69698); test: Recombinant Tat stability in HEK293T cells, western blot; format: cell-based, HIV; conditions: 4 hrs recombinant Tat then 2 hrs compound, n=1
# T1 construct: detected with anti-Tat serum
# T1 sequence (P69698 whole entry): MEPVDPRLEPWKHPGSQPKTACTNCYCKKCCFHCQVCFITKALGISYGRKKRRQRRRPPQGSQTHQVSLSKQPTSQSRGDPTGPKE
# Description: Next, the effect of the three leads on the alteration of Tat steady state levels was assessed. Tat expression from an integrated provirus, or from HIV acute infection is generally too low to be detected by western blot. Furthermore, antibodies against Tat are known for their lack of avidity. Tat degradation was thus assessed upon transfection. Flag-Tat or Flag-GFP were individually transfected into HEK293T and 24 hrs later, TT-44856, TT-44863 or TT-44881 were added to the culture, followed by Western blot 24 hrs later (dubbed “degradation assay”) (FIG. 5A). […] Finally, the leads' impact on recombinant Tat protein in HEK293T cells was assessed (FIG. 5D). HEK293T cells were incubated with recombinant Tat for 4 hrs to allow Tat internalization, followed by several thorough washes to remove unincorporated Tat. Cells were then incubated with all three leads (or Triptolide) for an additional 2 hrs. Cells were lysed and analyzed by western blot with an anti-Tat serum.
# ACH-2 cells = test: Cell-associated HIV Gag mRNA expression / HIV transcription in latently infected ACH-2 cells; format: cell-based; conditions: ACH-2; 12-day treatment with ARVs
# Description: as §1
# Flag-Tat = target: T2, Flag-Tat (Human immunodeficiency virus type 1 (HXB3 ISOLATE), UniProt P69698); test: Degradation assay: Flag-Tat in HEK293T cells, western blot; format: cell-based, HIV; conditions: for Flag-Tat degradation / steady state: HEK293T, western blot
# T2 construct: Tat 86 aa likely (9 lysines)
# T2 sequence (P69698 whole entry): as above
# Description: Next, the effect of the three leads on the alteration of Tat steady state levels was assessed. Tat expression from an integrated provirus, or from HIV acute infection is generally too low to be detected by western blot. Furthermore, antibodies against Tat are known for their lack of avidity. Tat degradation was thus assessed upon transfection. Flag-Tat or Flag-GFP were individually transfected into HEK293T and 24 hrs later, TT-44856, TT-44863 or TT-44881 were added to the culture, followed by Western blot 24 hrs later (dubbed “degradation assay”) (FIG. 5A). […] These cells were treated with TNFα (previously determined not be degraded by the three leads in FIG. 2D) in the presence of TT-44856, TT-44863 or TT-44881, followed by western blot with an anti-Flag antibody 17 hrs later. […] Finally, the leads' impact on recombinant Tat protein in HEK293T cells was assessed (FIG. 5D). HEK293T cells were incubated with recombinant Tat for 4 hrs to allow Tat internalization, followed by several thorough washes to remove unincorporated Tat. Cells were then incubated with all three leads (or Triptolide) for an additional 2 hrs. Cells were lysed and analyzed by western blot with an anti-Tat serum.
# Degradation of Tat has been reported in the literature in multiple ways, including the lysosomal pathway^23, the ubiquitin-independent 20S proteasomal pathway (due to its unfolded structure)^24,25, and the ubiquitin-dependent 26S proteasomal pathway^26. It was first assessed whether Tat was targeted to the lysosomal pathway by the lead compounds. HEK293T cells were transfected with Flag-Tat for 24 hrs, incubated with the compounds for an additional 24 hrs, then treated for 8 hrs with either 100 μM chloroquine or 50 mM NH4Cl, both known to inhibit lysosomal hydrolases by reducing acidification. […] Both the 20S and the 26S proteasomal pathways were next investigated using MG132, an inhibitor of the catalytic […] of 20S present in both pathways^27. The degradation assay was carried out as above, but compounds were simultaneously incubated with MG132 20 μM or DMSO for 17 hrs followed by western blot. In the presence of MG132, Tat degradation was rescued, but the rescue was higher in the presence of the lead compounds (FIG. 6B).
# Protein ubiquitination occurs by sequential recruitment of ubiquitin-activating enzyme E1, ubiquitin-conjugating enzyme E2, and ubiquitin ligase E3 (using ubiquitin, substrate protein, and ATP). The selectivity in protein ubiquitination is conferred by E3 ubiquitin ligases that recognize the substrate proteins^29 and the human genome contains more than 600 E3 ubiquitin ligases^29. To determine whether the small molecule leads trigger the 20S or the 26S proteasomal pathways, the Tat degradation assay was performed in the presence of commercially available E3 ligase inhibitors, including Lenalidomide a E3 ubiquitin ligase Cereblon inhibitor. Cereblon has not been previously reported to ubiquitinate Tat. The degradation assays were performed as above with Lenalidomide (40 μM) or DMSO incubation for 4 hrs in the presence of the lead molecules (FIG. 7A). […] To confirm the engagement of Cereblon in the mechanism of action of the lead compounds, shRNAs were used to stably knock down Cerebelon, or CD8 control, in HEK293T cells, and the degradation assay for TT-44856 was performed.
# The involvement of the ubiquitous VHL E3 ligase in the activity of TT-44881 inducing Tat degradation was also investigated. HEK293T cells overexpressing Tat protein and VHL siRNAs (or si control) were treated with either TT-44881 (60 μM) and DMSO or TT-44881 with a VHL PROTAC (CM11, 500 nM) for 24 hours. siRNAs and PROTACs were used together to maximize the depletion of both VHL isoforms (30 and 19 kDa).
# HeLa-CD4-LTR-LacZ cells = test: Cytotoxicity assay, Cell-Titer-Glo, HeLa-CD4-LTR-LacZ; conditions: read-out: Infectivity CC50, HeLa-CD4-LTR-LacZ
# Procedure, shortened: (§2)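 HeLa-CD4-LTR-LacZ reporter cells (β-Gal under HIV 5′ LTR) infected with HIV NL4.3; β-Gal activity read 72 h post infection, with parallel Cell-Titer-Glo viability. OM10.1 carry a single wild-type provirus; ACH-2 a single provirus with TAR C37T mutation, defective Tat-TAR feedback.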
# HIV NL4.3 strain = test: HIV infectivity assay, reporter cell line HeLa-CD4-LTR-LacZ, β-Gal activity (Tat protein inhibition); format: cell-based, HIV-1 (NL4.3)
# Procedure, shortened: as §2
# HIV = conditions: combined with ART; CD4+ T cells from infected individuals and humanized mouse model; cited from earlier work
# [3] = Cytotoxicity assay, Cell-Titer-Glo, HeLa-CD4-LTR-LacZ; conditions: human, hela-cd4-ltr-lacz cells, Infectivity CC50, HeLa-CD4-LTR-LacZ
# Procedure, shortened: as §2
# [4] = read-out: Infectivity IC50, HeLa-CD4-LTR-LacZ, analogs of TT-44856 (Table 3)
smiles,measurement,setting,value
"CC(C)[C@]12O[C@H]1[C@@H]1O[C@]13[C@]1(O[C@H]1C[C@H]1C4=C(CC[C@@]13C)C(=O)OC4)[C@@H]2O [Triptolide, reference compound]",Flag-Tat-Rev / TAR,[1],inhibition of both TAR and TAR-SIIB
same,Gag mRNA / HIV transcription (in words),OM10.1 cells,reduced Gag mRNA in both cell lines
same,Flag-Tat-Rev transactivation of TAR-SIIB,[2],inhibition of both TAR and TAR-SIIB
same,recombinant Tat degradation,recombinant Tat,degraded Tat as opposed to the DMSO control
same,Gag mRNA / HIV transcription (in words),ACH-2 cells,reduced Gag mRNA in both cell lines
same,Flag-Tat degradation / steady state,Flag-Tat,nonspecifically degraded Flag-Tat
same,effect of Lenalidomide on compound induced Flag-Tat degradation,"Flag-Tat; Lenalidomide 40 μM, 4 hrs","did not engage the 26S proteasomal pathway, but only the 20S proteasomal pathway"
Cc1nccn1CCCNC(=O)C(C)(c1ccccc1)c1ccccc1 [3-53],CC50,HeLa-CD4-LTR-LacZ cells; analogs of TT-44856 (Table 3),50 to 100 µM
same,IC50,HIV NL4.3 strain; [4],1 to 10 µM
"CN(C)[C@H]1C[C@@]23CC[C@@]4(O2)C(=CC[C@]2(C)C(c5ccc6ccncc6c5)=CC[C@H]24)C=C3[C@@H](O)[C@@H]1O [dCA, didehydro-Cortistatin A, reference compound]",Flag-Tat-Rev / TAR,[1],interfered with the Flag-Tat-Rev to TAR binding
same,Gag mRNA / HIV transcription (in words),OM10.1 cells,only inhibited transcription in OM10.1 cells
same,transcription and viral rebound with ART,HIV,inhibits transcription and blocks viral rebound upon treatment interruption
O=C(NCCCN1CCCC1=O)c1nn(-c2ccccc2)c2c1CCCC2 [GB-02],CC50,HeLa-CD4-LTR-LacZ cells; analogs of TT-44881 (Table 1),> 100 µM
same,IC50,"HIV NL4.3 strain; read-out: Infectivity IC50, HeLa-CD4-LTR-LacZ, analogs of TT-44881 (Table 1)",50 to 100 µM
O=C(NCCCn1ccnc1)C(c1ccccc1)c1ccccc1 [3-71],CC50,HeLa-CD4-LTR-LacZ cells; analogs of TT-44856 (Table 3),> 100 µM
same,IC50,HIV NL4.3 strain; [4],1 to 30 µM
CC(C)(C)OC(=O)COCCOCCOc1ccc(C(F)(F)F)cc1NC(=O)Cn1cc(C(F)(F)F)cc(Cl)c1=O [compound 56],CC50,HeLa-CD4-LTR-LacZ cells; analogs of TT-44863 (Table 2),> 100 µM
same,IC50,"HIV NL4.3 strain; read-out: Infectivity IC50, HeLa-CD4-LTR-LacZ, analogs of TT-44863 (Table 2)",> 100 µM
COc1ccc(C#N)cc1NC(=O)Cn1cccc(Cl)c1=O [TT-46766],CC50,[3]; analogs of TT-44863 (Table 2),> 100 µM
same,IC50,"HIV NL4.3 strain; Human immunodeficiency virus 1, read-out: Infectivity IC50, HeLa-CD4-LTR-LacZ, analogs of TT-44863 (Table 2)",> 100 µM
same,Flag-Tat degradation / steady state,Flag-Tat,did not affect Flag-Tat steady state
CN(CCCN1CCCC1=O)C(=O)c1nn(-c2ccccc2)c2c1CCC2 [GB-04],CC50,[3]; analogs of TT-44881 (Table 1),> 100 µM
same,IC50,"HIV NL4.3 strain; Human immunodeficiency virus 1, read-out: Infectivity IC50, HeLa-CD4-LTR-LacZ, analogs of TT-44881 (Table 1)",> 100 µM
same,Flag-Tat degradation / steady state,Flag-Tat,did not affect Flag-Tat steady state

# — patent publication US20260355184A1, “SMALL MOLECULE DEGRADERS OF HIV-1 TAT PROTEIN” (priority 2022, published 2026)
